# Assay results published in PubChem BioAssay AID1963966 (Molecular Pharmacology Branch, DTP, NCI, 2024).
# pIC50: −log10 of the molar value.
# Tested on: 935938-334-R-J1-PDC spheroids with HUVEC/MSC, viability
# Experiment: Anticancer human tumor 935938-334-R-J1-PDC patient-derived small intestine adenocarcinoma cell line growth inhibition [PI3K]
# Settings: for pIC50: curve of first compound; for viability, T/C: stronger effect = lower value
# Method in brief: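 We assembled tumor spheroids that included a stromal compartment of HUVEC and MSCs, then exposed them to targeted agents alone and together with PI3K pathway inhibitors. Concentration series descended by half-log from clinically achievable Cmax levels. Viability served as the endpoint.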
# [1] = second compound 0.0316 µM, first compound 0.0316 µM
# [2] = second compound 0.0316 µM, first compound 0.1 µM
# [3] = second compound 0.0316 µM, first compound 0.316 µM
# [4] = second compound 0.0316 µM, first compound 1 µM
# [5] = second compound 0.1 µM, first compound 0.0316 µM
# [6] = second compound 0.1 µM, first compound 0.1 µM
# [7] = second compound 0.1 µM, first compound 0.316 µM
# [8] = second compound 0.1 µM, first compound 1 µM
# [9] = second compound 0.316 µM, first compound 0.0316 µM
# [10] = second compound 0.316 µM, first compound 0.1 µM
# [11] = second compound 0.316 µM, first compound 0.316 µM
# [12] = second compound 0.316 µM, first compound 1 µM
# [13] = second compound 1 µM, first compound 0.0316 µM
# [14] = second compound 1 µM, first compound 0.1 µM
# [15] = second compound 1 µM, first compound 0.316 µM
# [16] = second compound 1 µM, first compound 1 µM
# [17] = second compound 3.16 µM, first compound 0.0316 µM
# [18] = second compound 3.16 µM, first compound 0.1 µM
# [19] = second compound 3.16 µM, first compound 0.316 µM
# [20] = second compound 3.16 µM, first compound 1 µM
# [21] = second compound 10 µM, first compound 0.0316 µM
# [22] = second compound 10 µM, first compound 0.1 µM
# [23] = second compound 10 µM, first compound 0.316 µM
# [24] = second compound 10 µM, first compound 1 µM
# 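Note: compound exposure lasted seven days before viability was read.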
# 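Throughout, for viability, T/C: percent of vehicle DMSO treated spheroid viability so 100% = untreated.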
smiles,measurement,setting,value
CC(C)NCC(C(=O)N1CCN(c2ncnc3c2C(C)CC3O)CC1)c1ccc(Cl)cc1 (centres undefined) + CC(Nc1ncnc2nc[nH]c12)c1cc2cccc(Cl)c2c(=O)n1-c1ccccc1,pIC50,second compound 0.0316 µM,5.14
same,pIC50,second compound 0.1 µM,5.47
same,pIC50,second compound 0.316 µM,5.19
same,pIC50,second compound 1 µM,5.75
same,pIC50,second compound 3.16 µM,5.59
same,pIC50,second compound 10 µM,5.72
same,"viability, T/C",[1],75.5%
same,"viability, T/C",[2],80%
same,"viability, T/C",[3],72.4%
same,"viability, T/C",[4],64%
same,"viability, T/C","second compound 0.0316 µM, first compound 3.16 µM",78.6%
same,"viability, T/C","second compound 0.0316 µM, first compound 10 µM",40.6%
same,"viability, T/C",[5],91.7%
same,"viability, T/C",[6],69.4%
same,"viability, T/C",[7],79.6%
same,"viability, T/C",[8],60.5%
same,"viability, T/C","second compound 0.1 µM, first compound 3.16 µM",55.1%
same,"viability, T/C","second compound 0.1 µM, first compound 10 µM",34.1%
same,"viability, T/C",[9],93.1%
same,"viability, T/C",[10],93%
same,"viability, T/C",[11],60.6%
same,"viability, T/C",[12],58%
same,"viability, T/C","second compound 0.316 µM, first compound 3.16 µM",65.8%
same,"viability, T/C","second compound 0.316 µM, first compound 10 µM",42.3%
same,"viability, T/C",[13],100%
same,"viability, T/C",[14],87.3%
same,"viability, T/C",[15],59.5%
same,"viability, T/C",[16],67.2%
same,"viability, T/C","second compound 1 µM, first compound 3.16 µM",40.5%
same,"viability, T/C","second compound 1 µM, first compound 10 µM",31.4%
same,"viability, T/C",[17],64.6%
same,"viability, T/C",[18],78.1%
same,"viability, T/C",[19],70%
same,"viability, T/C",[20],64.1%
same,"viability, T/C","second compound 3.16 µM, first compound 3.16 µM",44.1%
same,"viability, T/C","second compound 3.16 µM, first compound 10 µM",49.6%
same,"viability, T/C",[21],69.5%
same,"viability, T/C",[22],59.8%
same,"viability, T/C",[23],65.5%
same,"viability, T/C",[24],62%
same,"viability, T/C","second compound 10 µM, first compound 3.16 µM",40.1%
same,"viability, T/C","second compound 10 µM, first compound 10 µM",40.8%
CCN1CCN(Cc2ccc(Nc3ncc(F)c(-c4cc(F)c5nc(C)n(C(C)C)c5c4)n3)nc2)CC1 + CC(Nc1ncnc2nc[nH]c12)c1cc2cccc(Cl)c2c(=O)n1-c1ccccc1,pIC50,second compound 0.0316 µM,6.65
same,pIC50,second compound 0.1 µM,6.61
same,pIC50,second compound 0.316 µM,6.73
same,pIC50,second compound 1 µM,6.67
same,pIC50,second compound 3.16 µM,6.79
same,pIC50,second compound 10 µM,7.23
same,"viability, T/C","second compound 0.0316 µM, first compound 0.00316 µM",90.2%
same,"viability, T/C","second compound 0.0316 µM, first compound 0.01 µM",85.8%
same,"viability, T/C",[1],71.4%
same,"viability, T/C",[2],58.9%
same,"viability, T/C",[3],46.8%
same,"viability, T/C",[4],37.3%
same,"viability, T/C","second compound 0.1 µM, first compound 0.00316 µM",95.7%
same,"viability, T/C","second compound 0.1 µM, first compound 0.01 µM",92.6%
same,"viability, T/C",[5],73.8%
same,"viability, T/C",[6],62.9%
same,"viability, T/C",[7],41%
same,"viability, T/C",[8],48.2%
same,"viability, T/C","second compound 0.316 µM, first compound 0.00316 µM",79.4%
same,"viability, T/C","second compound 0.316 µM, first compound 0.01 µM",85%
same,"viability, T/C",[9],70.3%
same,"viability, T/C",[10],53.4%
same,"viability, T/C",[11],49.1%
same,"viability, T/C",[12],35.2%
same,"viability, T/C","second compound 1 µM, first compound 0.00316 µM",77%
same,"viability, T/C","second compound 1 µM, first compound 0.01 µM",86%
same,"viability, T/C",[13],66.7%
same,"viability, T/C",[14],64.4%
same,"viability, T/C",[15],43.1%
same,"viability, T/C",[16],31.5%
same,"viability, T/C","second compound 3.16 µM, first compound 0.00316 µM",74.3%
same,"viability, T/C","second compound 3.16 µM, first compound 0.01 µM",68%
same,"viability, T/C",[17],57.5%
same,"viability, T/C",[18],56.8%
same,"viability, T/C",[19],43.6%
same,"viability, T/C",[20],40.1%
same,"viability, T/C","second compound 10 µM, first compound 0.00316 µM",59.3%
same,"viability, T/C","second compound 10 µM, first compound 0.01 µM",82.1%
same,"viability, T/C",[21],63.4%
same,"viability, T/C",[22],39%
same,"viability, T/C",[23],38.3%
same,"viability, T/C",[24],34.6%
